Measurements published in ChEMBL document CHEMBL3774388, “Synthesis and anti-cancer activity evaluation of 5-(2-carboxyethenyl)-isatin derivatives” (Eur J Med Chem, 2016).
Activity calls are given as the source filed them. No cut-off for these calls is given here.

Assays:
[1] = test system: Jurkat; assay: Anticancer activity against human Jurkat cells after 48 hrs by MTT assay; type: functional, cell-based
[2] = test system: HeLa; assay: Anticancer activity against human HeLa cells after 48 hrs by MTT assay; type: functional, cell-based
[3] = test system: Jurkat; assay: Induction of apoptosis in human Jurkat cells assessed as necrotic cells at 10 nM after 12 hrs by Annexin-V-FITC/PI-staining based flow cytometric analysis (reference value: 0.8%); type: functional
[4] = Anticancer activity against human HCT116 cells after 48 hrs by MTT assay; type: functional, cell-based; conditions: HCT-116, 48 h
[5] = test system: Jurkat; assay: Induction of apoptosis in human Jurkat cells assessed as induction of cell shrinkage and blebbing at 10 and 30 nM incubated for 12 hrs by phase contrast microscopy; type: functional, cell-based
[6] = test system: Jurkat; assay: Induction of apoptosis in human Jurkat cells assessed as increase in cells with reduction in mitochondrial membrane potential at 30 nM after 48 hrs by TMRM-staining based flow cytometric analysis ( Rvb = 7.8%); type: functional; design: scale not given: the % may be the effect or the level left
[7] = Anticancer activity against human BT549 cells after 48 hrs by MTT assay; type: functional, cell-based; conditions: BT-549, 48 h
[8] = Anticancer activity against human SKOV3 cells after 48 hrs by MTT assay; type: functional, cell-based; conditions: SK-OV-3, 48 h
[9] = test system: Jurkat; assay: Induction of apoptosis in human Jurkat cells assessed as viable cells at 30 nM after 12 hrs by Annexin-V-FITC/PI-staining based flow cytometric analysis (reference value: 99.1%); type: functional; conditions: read-out: Activity
[10] = test system: Jurkat; assay: Induction of apoptosis in human Jurkat cells at 10 to 30 nM by Annexin-V-FITC/PI-staining based flow cytometric analysis; type: functional, cell-based; conditions: TDE = time-dependent effect
[11] = test system: Jurkat; assay: Induction of apoptosis in human Jurkat cells assessed as viable cells at 10 nM after 12 hrs by Annexin-V-FITC/PI-staining based flow cytometric analysis (reference value: 99.1%); type: functional; conditions: read-out: Activity
[12] = Anticancer activity against human BT474 cells after 48 hrs by MTT assay; type: functional, cell-based; conditions: BT-474, 48 h
[13] = test system: Jurkat; assay: Induction of apoptosis in human Jurkat cells assessed as increase in cells with reduction in mitochondrial membrane potential at 30 nM after 24 hrs by TMRM-staining based flow cytometric analysis ( Rvb = 7.8%); type: functional; design: scale not given: the % may be the effect or the level left
[14] = test system: A498; assay: Anticancer activity against human A498 cells after 48 hrs by MTT assay; type: functional, cell-based; conditions: A498, 48 h
[15] = test system: Jurkat; assay: Induction of apoptosis in human Jurkat cells assessed as necrotic cells at 30 nM after 12 hrs by Annexin-V-FITC/PI-staining based flow cytometric analysis (reference value: 0.8%); type: functional
[16] = test system: Jurkat; assay: Induction of apoptosis in human Jurkat cells assessed as late apoptotic cells at 30 nM after 12 hrs by Annexin-V-FITC/PI-staining based flow cytometric analysis relative to control; type: functional
[17] = test system: Jurkat; assay: Induction of apoptosis in human Jurkat cells assessed as early apoptotic cells at 30 nM after 12 hrs by Annexin-V-FITC/PI-staining based flow cytometric analysis relative to control; type: functional
[18] = Anticancer activity against human DU145 cells after 48 hrs by MTT assay; type: functional, cell-based; conditions: DU-145, 48 h
[19] = test system: HEK293; assay: Cytotoxicity against HEK293 cells after 48 hrs by MTT assay; type: cell-based; conditions: Homo sapiens, HEK293, 48 h
[20] = test system: A549; assay: Anticancer activity against human A549 cells after 48 hrs by MTT assay; type: functional, cell-based; conditions: A549, 48 h
[21] = test system: Jurkat; assay: Induction of apoptosis in human Jurkat cells assessed as late apoptotic cells at 10 nM after 12 hrs by Annexin-V-FITC/PI-staining based flow cytometric analysis relative to control; type: functional
[22] = test system: Jurkat; assay: Induction of apoptosis in human Jurkat cells assessed as early apoptotic cells at 10 nM after 12 hrs by Annexin-V-FITC/PI-staining based flow cytometric analysis relative to control; type: functional
[23] = test system: NCI-H1299; assay: Anticancer activity against human NCI-H1299 cells after 48 hrs by MTT assay; type: functional, cell-based; conditions: NCI-H1299, 48 h
[24] = test system: MCF7; assay: Anticancer activity against human MCF7 cells after 48 hrs by MTT assay; type: functional, cell-based; conditions: MCF7, 48 h
[25] = test system: Jurkat; assay: Induction of apoptosis in human Jurkat cells using Z-DEVD-R110 as substrate assessed as caspase3 activation at 30 nM incubated for 18 hrs measured at 48 hrs by fluorescence analysis; type: functional, cell-based
[26] = test system: HUVEC; assay: Cytotoxicity against HUVEC cells after 48 hrs by MTT assay; type: cell-based; conditions: Homo sapiens

CCOC(=O)/C=C/c1ccc2c(c1)C(=O)C(=O)N2Cc1ccc(Br)cc1
IC50 [1]: 0.07 µM

COC(=O)/C=C/c1ccc2c(c1)C(=O)C(=O)N2Cc1ccc2ccccc2c1
IC50 [1]: 0.64 µM

COC(=O)/C=C/c1ccc2c(c1)C(=O)C(=O)N2
IC50 [1]: 0.2 µM

COC(=O)/C=C/c1ccc2c(c1)C(=O)C(=O)N2Cc1ccccc1
IC50 [1]: 0.07 µM

O=C1Nc2ccc(F)cc2C1=O [5-FLUOROISATIN]
IC50 [1]: > 10 µM

CC(C)(C)OC(=O)/C=C/c1ccc2c(c1)C(=O)C(=O)N2Cc1ccc(Br)cc1
IC50 [1]: 1.04 µM

COc1ccc(CN2C(=O)C(=O)c3cc(/C=C/C(=O)N4CCOCC4)ccc32)cc1
IC50 [1]: 4.55 µM

CCCCOC(=O)/C=C/c1ccc2c(c1)C(=O)C(=O)N2Cc1ccc(Br)cc1
IC50 [1]: 0.7 µM

COc1ccc2c(c1)C(=O)C(=O)N2 [5-METHOXYISATIN]
IC50 [1]: > 10 µM

COC(=O)/C=C/c1ccc2c(c1)C(O)C(=O)N2Cc1ccc(Br)cc1 (stereo unspecified)
IC50 [1]: 1.23 µM

COc1ccc(CN2C(=O)C(=O)c3cc(/C=C/C(=O)OC(C)(C)C)ccc32)cc1
IC50 [1]: 0.31 µM

COc1ccc(CN2C(=O)C(=O)c3cc(/C=C/C(N)=O)ccc32)cc1
IC50 [1]: 1.61 µM

O=C1Nc2ccc(Cl)cc2C1=O
IC50 [1]: > 10 µM

Cc1ccc2c(c1)C(=O)C(=O)N2
IC50 [1]: > 10 µM

COC(=O)/C=C/c1ccc2c(c1)C(=O)C(=O)N2Cc1ccc(Cl)c(Cl)c1
IC50 [1]: 0.85 µM

CC[C@@]1(O)C(=O)OCc2c1cc1n(c2=O)Cc2cc3ccccc3nc2-1 [CAMPTOTHECIN]
IC50 [1]: 0.085 µM

COc1ccc(CN2C(=O)C(=O)c3cc(/C=C/C(=O)OCCO)ccc32)cc1
IC50 [1]: 0.5 µM

COC(=O)/C=C/c1ccc2c(c1)C(=O)C(=O)N2Cc1cccc(Br)c1
IC50 [1]: 0.12 µM

COC(=O)/C=C/c1ccc2c(c1)C(=O)C(=O)N2Cc1ccc(C#N)cc1
IC50 [1]: 0.08 µM

COC(=O)/C=C/c1ccc2c(c1)C(=O)C(=O)N2Cc1cc(C)cc(C)c1
IC50 [1]: 0.62 µM

COC(=O)/C=C/c1ccc2c(c1)C(=O)C(=O)N2Cc1ccccc1Br
IC50 [1]: 0.8 µM

COc1ccc(CN2C(=O)C(=O)c3cc(/C=C/C(=O)O)ccc32)cc1
IC50 [1]: > 10 µM

CCCCc1ccc2c(c1)C(=O)C(=O)N2
IC50 [1]: > 10 µM

O=C1C(=O)N(Cc2ccc(Br)cc2)c2ccc(/C=C/C(=O)N3CCOCC3)cc21
IC50 [1]: 1.43 µM

O=C(/C=C/c1ccc2c(c1)C(=O)C(=O)N2Cc1ccc(Br)cc1)OCCO
IC50 [1]: 0.4 µM

CCN1C(=O)C(=O)c2cc(/C=C/C(=O)OC)ccc21
IC50 [1]: 0.2 µM

COC(=O)/C=C/c1ccc2c(c1)N(Cc1ccc(OC)cc1)C(=O)C2=O
IC50 [1]: 3.11 µM

COC(=O)/C=C/c1ccc2c(c1)CC(=O)N2Cc1ccc(OC)cc1
IC50 [1]: > 10 µM

O=C1C(=O)N(Cc2ccc(Br)cc2)c2ccc(/C=C/C(=O)N3CCCC3)cc21
IC50 [1]: 3.19 µM

COC(=O)/C=C/c1ccc2c(c1)C(O)C(=O)N2Cc1ccc(OC)cc1 (stereo unspecified)
IC50 [1]: 0.03 µM

COC(=O)/C=C/c1ccc2c(c1)/C(=N/O)C(=O)N2Cc1ccc(OC)cc1
IC50 [1]: 9.11 µM

CCOC(=O)/C=C/c1ccc2c(c1)C(=O)C(=O)N2Cc1ccc(OC)cc1
IC50 [1]: 0.03 µM

NC(=O)/C=C/c1ccc2c(c1)C(=O)C(=O)N2Cc1ccc(Br)cc1
IC50 [1]: 2.34 µM

COC(=O)/C=C/c1cccc2c1C(=O)C(=O)N2Cc1ccc(OC)cc1
IC50 [1]: 0.79 µM

COC(=O)/C=C/c1ccc2c(c1)C(=O)C(=O)N2CCOc1ccccc1
IC50 [1]: 0.2 µM

COC(=O)/C=C/c1ccc2c(c1)C(=O)C(=O)N2Cc1ccc(C)cc1
IC50 [1]: 0.05 µM

COC(=O)/C=C/c1ccc2c(c1)CC(=O)N2Cc1ccc(Br)cc1
IC50 [1]: > 10 µM

COC(=O)/C=C/c1ccc2c(c1)C(=O)C(=O)N2Cc1ccc(F)cc1
IC50 [1]: 0.38 µM

COC(=O)/C=C/c1cccc2c1N(Cc1ccc(OC)cc1)C(=O)C2=O
IC50 [1]: > 10 µM

O=C1Nc2ccccc2C1=O [ISATIN]
IC50 [1]: > 10 µM

COC(=O)/C=C/c1ccc2c(c1)/C(=N/O)C(=O)N2Cc1ccc(Br)cc1
IC50 [1]: 5.86 µM

COC(=O)/C=C/c1ccc2c(c1)C(=O)C(=O)N2C
IC50 [1]: 0.25 µM

COC(=O)/C=C/c1ccc2c(c1)C(=O)C(=O)N2Cc1ccc(Br)cc1
IC50 [1]: 0.06 µM

COC(=O)/C=C/c1ccc2c(c1)C1(OCCO1)C(=O)N2Cc1ccc(OC)cc1
IC50 [1]: > 10 µM

COC(=O)/C=C/c1ccc2c(c1)C(=O)C(=O)N2Cc1ccc(C(F)(F)F)cc1
IC50 [1]: 0.36 µM

CCCCOC(=O)/C=C/c1ccc2c(c1)C(=O)C(=O)N2Cc1ccc(OC)cc1
IC50 [1]: 0.22 µM

COC(=O)/C=C/c1ccc2c(c1)C1(OCCO1)C(=O)N2Cc1ccc(Br)cc1
IC50 [1]: > 10 µM

O=C1Nc2ccc(Br)cc2C1=O
IC50 [1]: > 10 µM

COC(=O)/C=C/c1ccc2c(c1)C(=O)C(=O)N2Cc1ccc(Cl)cc1
IC50 [1]: 0.26 µM

COC(=O)/C=C/c1ccc2c(c1)C(=O)C(=O)N2Cc1ccc(OC)cc1
IC50 [1]: 0.03 µM | IC50 [2]: 9.12 µM | Activity [3]: 1.8% | IC50 [4]: 0.04 µM | Activity [5]: Active | Activity [6]: 81.9% | IC50 [7]: 0.07 µM | IC50 [8]: > 10 µM | viability at 0.03 µM [9]: 56.1% | Activity [10]: tde | viability at 0.01 µM [11]: 62.5% | IC50 [12]: 5.94 µM | Activity [13]: 32% | IC50 [14]: 5.3 µM | Activity [15]: 1.9% | Activity [16]: 6.5% | Activity [17]: 35.5% | IC50 [18]: > 10 µM | IC50 [19]: > 10 µM | IC50 [20]: > 10 µM | Activity [21]: 7.2% | Activity [22]: 28.5% | IC50 [23]: 0.03 µM | IC50 [24]: 0.08 µM | Activity [25]: Active | IC50 [26]: > 10 µM

COc1ccc(CN2C(=O)C(=O)c3cc(/C=C/C(=O)N4CCCC4)ccc32)cc1
IC50 [1]: 2.24 µM
